Test results reported in patent publication US20180221369A1, “COMPOSITIONS AND METHODS FOR TREATING FIBROSING DISORDERS AND CANCER” (Cedars-Sinai Medical Center, priority 2014, published 2018).

Tests used:
[1] = system: cerulein-induced pancreatic fibrosis; experiment: Cerulein-induced pancreatic fibrosis (chronic pancreatitis) mouse model, Picro-Sirius Red quantitation; type: in vivo, C57BL/6J mice; details: cerulein plus 120 mg INNO-406/kg per day oral gavage for 6 weeks; cerulein alone 16.39+/−3.08%, untreated 2.00+/−0.84%
Excerpt: There is no optimal animal model available for human pancreatitis-induced fibrosis, to date. However, a most commonly used experimental model of chronic pancreatitis (CP) partially recapitulating human disease is repeated injection of cerulein into mice (Ulmasov, B. et al. Am J Pathol. 183, 692-708 (2013)). C57BL/6 is the most frequently used mouse strain for this type of biomedical research. In our current experiments, C57BL/6J mice (2 months old male and female) were divided into 3 groups (each group consisted of 15 animals) as follows: (1) untreated mice (saline only); (2) mice treated with cerulein for 6 weeks (50 μg/kg hourly, 6 hourly injections in one day constituted one treatment, twice-weekly); (3) mice treated with cerulein (as above) plus 120 mg INNO-406/kg per day for 6 weeks (oral gavage). When 120 mg INNO-406/kg per day is administrated orally to the mice, the concentration of INNO-406 in the soft tissues is estimated to be 0.24 μM according to pharmacokinetic studies described previously (Kimura, S. et al. Blood., 106, 3948-3954 (2005); Yokota, A, et al. Blood, 109, 306-314 (2007)). […] Picro sirius red quantitation were performed using Leica Biosystem Tissue IA Optimizer web-based program that measures positive stained intensity per area at 10× magnification. […]

[2] = 120 mg INNO-406/kg per day orally to mice; estimated according to previously described pharmacokinetic studies; cited from earlier work
[3] = system: chronic pancreatitis stellate cells (hCP); experiment: Transwell migration assay with SDF-1, chronic pancreatitis stellate cells; type: cell-based, human; details: SDF-1 0.025 μM, 2 h; siRNA 100 nM 48 h, AMD3100 5-50 μM or INNO-406 10-100 nM 60 minutes
Protocol: (§1) The migration assays were performed by using transwell migration assays with polycarbonate membrane inserts with 8 μm pore size that is optimal for fibroblast-like cell migration (Corning Incorporated, NY, cat #3422). Stellate cells were treated with siRNA (100 nM) for 48 h, or with increasing concentrations of AMD3100 (5 μM-50 μM) or INNO-406 (10 nM-100 nM) for 60 minutes. Then, cells were placed in the migration upper chambers, in the presence or absence of SDF-1 (0.025 μM) with 2% FBS in the lower chambers. After 2 h of incubation, cells migrated to the lower chamber were counted, and the chemotactic index was determined as follows:
(§2) (number of cells migrating to SDF-1 chemokine)/(number of cells migrating to medium alone)
(§3) To distinguish chemotaxis versus chemokinesis, a control checkerboard analysis was performed.

[4] = system: normal stellate cells (hNP); details: SDF-1 0.025 μM, 2 h, AMD3100 5-50 μM 60 minutes
Protocol: as §1, §2, §3

Cc1ccc(NC(=O)c2ccc(CN3CC[C@H](N(C)C)C3)c(C(F)(F)F)c2)cc1Nc1nccc(-c2cncnc2)n1 [INNO-406, Bafetinib]
pancreatic fibrosis (Picro-Sirius Red positive stained area per total area) [1]: 7.50+/−4.77%
concentration of INNO-406 in the soft tissues [2]: 0.24 µM

c1cc(CN2CCCNCCNCCCNCC2)ccc1CN1CCCNCCNCCCNCC1 [AMD3100]
SDF-1/CXCR4-induced chemotaxis (chemotactic index) [3]: could be blocked
SDF-1/CXCR4-induced chemotaxis (chemotactic index) [4]: could be blocked
